Results as given in patent US12528792B2, “Sulfonamide compounds and the use thereof in the treatment of cancer” (TROBIO THERAPEUTICS PTY LTD, priority 2019, dated 2026).

Legend:
F-actin/Tpm3.1 = F-actin/Tpm3.1 (Homo sapiens, UniProt P06753); assay: Actin depolymerisation assay; format: biochemical; details: 50 μmol/L test compound, FIG. 1
Protocol: A 12 μmol/L solution of labelled F-actin was prepared by polymerising the monomeric actin (35% pyrene labelled Rabbit Muscle (Cytoskeleton Inc)) into filaments in the presence of buffer T (100 mmol/L NaCl; 10 mmol/L Tris HCl PH 7.5; 2 mmol/L MgCl2; 1 mmol/L EGTA; 0.5 mmol/L DTT) with added ATP (0.2 mmol/L), for 1 hour in the dark at room temperature. Tpm3.1 (10 μmol/L) was reduced in buffer T containing 1 mmol/L DTT at 70° C. for 6 minutes and centrifuged at 60,000 rpm for 30 minutes to remove nonreduced dimers. […] Duplicate samples were diluted 12-fold using an F-actin polymerisation buffer (100 mmol/L NaCl; 10 mmol/L Tris HCl PH 7; 2 mmol/L MgCl2; 1 mmol/L EGTA; 0.2 mmol/L ATP; 1 mmol/L DTT) and the depolymerisation rates of F-actin alone, F-actin/Tpm3.1, and the F-actin/Tpm3.1/test compound filament complex were measured using a Costar 3915 fluorescence plate reader (407 nm) at 36-second intervals for 160 minutes at room temperature. Data were normalized to the initial fluorescence value and polymerisation curves of duplicate samples were fitted to a two-phase exponential decay model using OriginPro 9.1 (OriginLab) (FIG. 1A). Percent polymerisation was determined at t160 as a function of to (100%) (FIG. 1B, p<0.0001).

[1] = system: SK-N-SH neuroblastoma cells; assay: Cytotoxicity assay, MTS viability; format: cell-based; details: Homo sapiens, 72 hours
Summary of the method: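 SK-N-SH cells, 2×10^3/well in DMEM with 10% FBS at 37 °C, treated with 1:2 compound series from 100 μM; MTS viability read after 72 hours. Viability normalised to vehicle control; EC50 taken from dose-response curves.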

[2] = system: A2780 ovarian cancer cells; assay: In vitro growth inhibition assay, Alamar Blue, single agent IC50; format: cell-based; details: Homo sapiens, 72 h drug exposure, Alamar Blue, 384-well (26*: 96-well plate format), read-out: Single-agent IC50
Protocol: (§1) In vitro growth inhibition assays were performed as technical triplicate in two independent experiments and cell viability was assessed by Alamar Blue assay readout. Briefly, cells in logarithmic phase growth were seeded in 384-well plates in a 50 μL/well assay volume. Cells were seeded at 1,200 cells/well using a Multidrop 384 (Thermo Scientific) and allowed to adhere at 37° C. with 5% CO2, in a humidified atmosphere (LiCONIC incubator). After 24 hours incubation, test compounds, positive control (20 μM Thonzonium bromide, 100% kill) and vehicle only (0.4% DMSO) were added into wells of each assay plate using a Tecan HP D300 Digital Dispenser in technical triplicate under minimum light. Following 72 hours drug exposure, metabolic activity was detected by addition of 10% (v/v) Alamar Blue reagent to each assay well using a Multidrop Cambi (Thermo Scientific) and determined by measurement of fluorescence intensity (excitation 555 nm, emission 585 nm) using an EnSpire (Perkin Elmer) plate reader. Readings were performed at 0 hour (background) and after 6 hours alamar blue incubation at 37° C.
Each drug was tested as a 10-point concentration series with two-fold serial dilutions of each drug. The concentration series for compounds 6 and 8 was 100, 50, 25, 12.5, 6.25, 3.125, 1.563, 0.781, 0.391 and 0.195 μM and for compounds 24, 43 and 48 was 50, 25, 12.5, 6.25, 3.125, 1.563, 0.781, 0.391, 0.195 and 0.098 μM for the two independent experiments. The concentration series for vinorelbine and paclitaxel was 100, 50, 25, 12.5, 6.25, 3.125, 1.5625, 0.781, 0.391 and 0.195 nM. Thonzonium bromide (20 μM) and 0.4% DMSO were used as positive and vehicle controls, respectively. The IC50 value was calculated by derivation of the best-fit line using a sigmoidal dose response model (Activity Base Software Suite, IDES).
Activity Base software suite (IDES, version 8.3.0.175) was used for data analysis. Cell survival is expressed as a percentage of viable cells. IC50 concentrations were calculated by derivation of the best-fit line using a sigmoidal dose response model with technical triplicate data points.

[3] = system: A2780 ovarian cancer cells; assay: Drug combination screen, 6x6 dose matrix, Bliss-independence synergy; format: cell-based; design: key to Max. Synergy, Vinorelbine: Bliss synergy score; 0 = no synergy, negative = antagonism; highest in matrix; key to Total Synergy, Vinorelbine: sum of Bliss synergy scores across the dose matrix; details: 72 h (26*: 96-well plate format)
Protocol: as §1
The two drugs in each combination matrix were dispensed using a Tecan HP D300 Digital Dispenser. Assays were performed in triplicate for each drug combination (test compound/vinorelbine and test compound/paclitaxel combinations). Synergistic drug interactions were calculated from the averaged cell viability data using the methodology described below.
Synergistic drug interactions were determined for each pa1rw1se drug combination by applying the Bliss-independence model that assumes independence of drug mechanisms. Prior to the analysis, percent cell viability (CV) for combination data were converted to fractional cell growth inhibition (GI) by the formula: […]
The Bliss additivism model was used to calculate a predicted combined response C to two single agents with responses A and B (using GI values), as follows:
The final score for any combination was reported as the difference between the value predicted by the additive model and the experimentally observed value, normalised to 100. Using GI values the maximum possible synergy score is 100, with 0 indicating no synergy and negative indicating possible antagonism. Scores were also reported as a “Max synergy” score, which is the highest individual synergy score for each combination matrix, and a “Total synergy” score, which was obtained by summation of each individual synergy score for the matrix.
The single agent IC50 values for the test compounds and their synergy scores in combination with vinorelbine and paclitaxel are presented in Table 4. The data is listed as IC50 mean from technical triplicates for two independent experiments. The averaged IC50 concentrations for the single agents from both runs were then used to generate the 6×6 dose matrices in the synergy experiment. Synergy scores for each drug combination were calculated by the Bliss-independence model. The maximum synergy and total synergy scores for each combination in A2780 cells are listed.

O=C(Nc1ccc(C(F)(F)F)cc1)c1ccn(S(=O)(=O)c2ccc3[nH]ccc3c2)c1 [Compound 26, 1-((1H-indol-5-yl)sulfonyl)-N-(4-(trifluoromethyl)phenyl)-1H-pyrrole-3-carboxamide]
Inhibition of Tpm3.1 protection of actin filaments from depolymerisation (F-actin/Tpm3.1): inhibit the ability of Tpm3.1 to protect actin filaments from depolymerisation | IC50 [1]: 7.87 µM | IC50 [2]: 12.5 µM | Max. Synergy, Paclitaxel ([3]; combination with paclitaxel, Bliss score): 7.83 | Total Synergy, Paclitaxel ([3]; combination with paclitaxel, sum of Bliss scores of the matrix): 61.23 | Max. Synergy, Vinorelbine ([3]; combination with vinorelbine, Bliss score): 10.86 | Total Synergy, Vinorelbine ([3]; combination with vinorelbine, sum of Bliss scores of the matrix): 60.91
